This series in a line: gradient 5% acetonitrile 3 min, to 50% in 2 min, to 85% in 15 min, held 3 min, 100 µL/min. The following applies: column: Zorbax Extend-C18 2.1 x 50 mm; eluents: water / acetonitrile, 0.1% formic acid. The method, boiled down:
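Retention time was recorded from adduct peaks, which were picked computationally and each inspected manually. Pure standards ran in mixtures of ~100 molecules on HPLC coupled to a quadrupole time-of-flight mass spectrometer, in positive and negative ionization mode, through a Zorbax Extend-C18 column (2.1 × 50 mm, 1.8 μm) at 100 μL/min. Eluents were water and acetonitrile, each with 0.1% formic acid.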
Compound `COc1ccc(Cc2nc(-c3ccc4c(c3)nc(C)c(=O)n4C)no2)cc1` came in with an RP-LC retention time of 927 s. For `CCc1nc(-c2cccc(-c3noc(CNC(=O)Cc4ccc(Cl)cc4)n3)c2)cs1` the value was 1100 s. For `O=C(Cc1csc(NC(=O)C2CCCC2)n1)NC1CCN(Cc2ccccc2)CC1` the value was 569 s; for `CS(=O)(=O)c1ccc(-c2cccc(NS(=O)(=O)c3ccc4c(c3)CCCC4)c2)nn1`, 855 s. For `Cc1noc(/C=C/c2ccc(S(=O)(=O)N3CCOCC3)s2)c1NC(=O)C1CC1`, the RP-LC retention time amounted to 778 s. The value for `CC(C)CCC(=O)N1CCN(c2nc(CN3CCOCC3)cs2)CC1` was 624 s; that for `O=C(CN1C(=O)NC2(CCCCC2)C1=O)Nc1ccc(Cl)cc1` was 825 s. For `Cc1ccc(-c2nc(-c3ccc4c(c3)nnn4CCN3CCOCC3)no2)cc1C` the value was 760 s; for `O=C(CSCc1ccccc1)N1CCC(Cn2cccn2)CC1`, 721 s; for `Fc1ccccc1-c1noc(-c2nnn3c2COC(c2ccc(Cl)cc2)C3)n1` (centres undefined), 1160 s. The value for `Cc1cccc(CN2CC(=O)N(c3cccc(C)c3)[C@@H]3CS(=O)(=O)C[C@@H]32)c1` was 826 s; that for `O=C(NCc1cccs1)C1CCCN(C(=O)c2cc(-c3ccccn3)n[nH]2)C1` (centres undefined) was 641 s; that for `COC(=O)c1c(-c2ccccc2)noc1NCc1ccc(C)o1` was 989 s. With `COc1ccc(S(=O)(=O)N2CC(F)(F)C[C@H]2c2nnc(C)o2)cc1`, the RP-LC retention time stood at 788 s. The value for `O=C(NCCCN1CCOCC1)c1ccc2ccnc(N3CCN(c4ccccc4)CC3)c2c1` was 586 s.

With `O=S(=O)(Nc1cccnc1)c1ccc(Cl)c(-c2nnc(-c3ccccc3)o2)c1`, the RP-LC retention time came to 807 s.

Turning to `CN1CCn2ccnc2C12CCN(S(=O)(=O)c1ccccc1C(F)(F)F)CC2`, the RP-LC retention time turned out to be 654 s.

`CN(C)c1ccc(C(=O)NC2CCN(c3ccccc3)C2=O)cc1` (centres undefined) showed an RP-LC retention time of 713 s. The value for `Cc1nn(-c2ccccc2)c(C)c1S(=O)(=O)N1CCC(C(=O)NCCc2cccs2)CC1` was 881 s.

Turning to `CCOC(=O)c1noc2ncnc(N(CCN(C)C)Cc3ccccc3)c12`, the RP-LC retention time was 656 s.

In turn, `O=C(Nc1cccc(Cl)c1)N1CCc2nc(-c3ccc(Cl)cc3)ncc2C1` yielded an RP-LC retention time of 1150 s. For `CN(C)C(CNC(=O)Nc1ccccc1C(F)(F)F)c1ccco1` (centres undefined) the value was 566 s; for `COc1cccc(-n2nnc(-c3nsc(Nc4ccccc4)n3)c2C)c1`, 990 s. For `COc1ccccc1N1CCN(C(=O)CN2C(=O)CC(c3cccs3)=Nc3ccccc32)CC1` the value was 898 s; for `CN(C)CC(=O)N1CCC(Oc2nccnc2N(C)C)C1` (centres undefined), 539 s. `CC(C)C(=O)N1CC[C@H](CO)[C@H](NC(=O)C2CC2)C1` displayed an RP-LC retention time of 583 s.

`Cc1ccc(CCCN2CCCC(COc3ccccc3C(=O)N3CCCCC3)C2)o1` (centres undefined) yielded an RP-LC retention time of 748 s. Compound `O=C(Nc1ccc2c(c1)OCCO2)N1CCC(OCCOCc2ccccc2)CC1` yielded an RP-LC retention time of 853 s.

The compound `O=C(COc1ccc(F)cc1)Nc1ccc2c(c1)CCC(=O)N2` yielded an RP-LC retention time of 705 s. The value for `O=S(=O)(Nc1cccn2ncnc12)c1cccc(C(F)(F)F)c1` was 804 s; that for `Cc1nnc2c(NC(=O)c3ccncc3)cccn12` was 575 s. For `CCCSc1nnc(NC(=O)CCc2ccc(C)o2)s1` the value was 892 s; for `CCCN(CCC)C(=O)Cn1nc(-c2nc(-c3ccc(C)cc3)no2)c2ccccc21`, 859 s; for `CCCOC(=O)c1cccc(Nc2nc(-c3cccnc3)nc3ccccc23)c1`, 889 s. For `CSc1ccc(NC(=O)N2CCC(c3cc(N)on3)CC2)cc1` the value was 713 s; for `CCC1CCCCN1CCCNC(=O)CCc1cc2ccc(C)cc2[nH]c1=O` (centres undefined), 596 s; for `CCCCN(CC)CCNC(=O)C1CCCN(c2ncnc3c2nc2n3CCCCC2)C1` (centres undefined), 614 s. `Cc1ccc(S(=O)(=O)N2CCCOC2CNC(=O)C(=O)NCc2cccs2)cc1` (centres undefined) came in with an RP-LC retention time of 806 s. The value for `CC(C)(C)OC(=O)Cn1cnc2c(-c3ccc(Cl)cc3)csc2c1=O` was 1120 s; that for `COC(=O)c1ccc(NC(=O)NCCn2c(C(F)(F)F)nc3cccnc32)cc1` was 706 s; that for `Cc1ccc(NC(=O)N2CCCC(Cn3c(C4CC4)nc4cccnc43)C2)c(C)c1` (centres undefined) was 694 s. For `COc1ccc(OC)c(CNC(=O)c2cccc3c2SCCC3=O)c1` the value was 801 s; for `N#Cc1cccc(C(=O)Nc2ccc3cn[nH]c3c2)c1`, 659 s; for `Cc1nc(C2CC23CCN(S(=O)(=O)c2c(C)c(C)cc(C)c2C)CC3)no1` (centres undefined), 1170 s. The value for `O=c1ccc(N2CCCN(S(=O)(=O)c3ccc(F)c(F)c3)CC2)nn1-c1ccccc1` was 861 s. For `Cc1cccc(CN2CCCn3nc(C(=O)NCCc4cccs4)cc3C2=O)c1`, the RP-LC retention time amounted to 820 s.

As to `CC(C)Cc1noc(C2(F)CCN(S(=O)(=O)c3ccccc3)CC2)n1`, the RP-LC retention time was 691 s. For `COc1ccccc1N1CCN(c2ncc(S(=O)(=O)c3ccc(C(C)C)cc3)c(N)n2)CC1` the value was 1120 s; for `CC1=C(c2ccc(C)cc2)S(=O)(=O)N=C1N1CCCN(C(=O)c2cccc(C)c2)CC1`, 898 s. With `CCN(Cc1cnn(CC)c1)C(=O)C1CN(C(=O)c2ccccc2)CC12CCCCC2` (centres undefined), the RP-LC retention time worked out at 812 s.

`Cc1cc(S(=O)(=O)N2CCC(N(C(=O)C3CC3)C3CCOCC3)CC2)ccc1Cl` gave an RP-LC retention time of 977 s. The value for `CC(C)Oc1ccc(C(=O)N2CCC3(CC2)C(=O)N(C)c2ccccc23)cc1` was 930 s; that for `CCn1c(CCc2ccccc2NS(=O)(=O)c2cccc3nsnc23)nc2ccccc21` was 713 s. The value for `Cn1c(C2CCN(C(=O)Nc3cc(F)ccc3F)CC2)cc(=O)n2nccc12` was 695 s; that for `COc1ccc(Cl)cc1N1CC(c2nc(-c3ccc(C)cc3)no2)CC1=O` (centres undefined) was 1050 s; that for `CCc1ccc(-c2cn3ccn(-c4cccc(F)c4)c(=O)c3n2)cc1` was 895 s. For `CCOc1ccc(NC(=O)CCC2CCN(c3cc(NC4CC4)ncn3)CC2)cc1` the value was 710 s; for `O=C(CN1C(=O)NC2(CCCCC2)C1=O)Nc1ccc(Cl)cc1F`, 809 s; for `Cc1sc(NC(=O)CCC2CCCCC2)nc1-c1ccc2c(c1)N(C)C(=O)CO2`, 1290 s. As to `CC1CCCCC12NCCN=C2NCc1ccc(F)cc1` (centres undefined), the RP-LC retention time worked out at 603 s. The value for `CCOC(=O)CNC(=O)N1CCCN(C2=NS(=O)(=O)C(c3ccc(C)cc3)=C2C)CC1` was 743 s; that for `Cn1nc(C(=O)N2CCCCC2)c2c1CCN(C(=O)CCC(=O)NCC1CCCO1)C2` (centres undefined) was 608 s; that for `Cc1cc(N2CCN(S(=O)(=O)c3ccccc3F)CC2)nc(NC2CCCCC2)n1` was 796 s. The value for `CCN(CC)S(=O)(=O)c1ccc(C(=O)Nc2nc3c(s2)CCc2ccccc2-3)cc1` was 738 s; that for `Cn1nccc1C(=O)N1CCN(S(=O)(=O)c2ccc3c(c2)sc(=O)n3C)CC1` was 699 s. For `Cc1ccc(N2C(=O)C3N=NN(Cc4nc(-c5ccc(Cl)cc5)no4)C3C2=O)cc1` (centres undefined) the value was 1070 s; for `CCC(CC)C(=O)NCCc1c[nH]c2ccc(C)cc12`, 860 s; for `O=C(N[C@@H]1CN(c2ncccn2)C[C@H]1CO)c1ccoc1`, 567 s. `CCc1nc2cc(CNC(=O)Cc3ccc(Cl)cc3)ccc2n1C` displayed an RP-LC retention time of 641 s. Consider `COc1ccc(-c2nc(Cn3c(=O)c4c(C)cc(C)nc4n(C)c3=O)c(C)o2)cc1OC`, for which the RP-LC retention time stood at 1100 s. The value for `CCOc1ccc(CC(=O)N2C[C@@H]3C[C@H]2C[C@@H]3NC(=O)c2ccccc2)cc1` was 762 s.

As to `O=C(c1ccc(-c2ccc3c(c2)CCN3S(=O)(=O)c2ccccc2)cc1)N1CCOCC1`, the RP-LC retention time came out at 885 s.

With `O=C(NCCC1CCN(S(=O)(=O)c2ccc(F)cc2)CC1)Nc1ccc(F)cc1`, the RP-LC retention time is 909 s. For `CC(=O)Nc1ccc(CCc2nc3ccc(C(=O)NCCc4c[nH]c5ccccc45)cc3[nH]2)cc1` the value was 644 s; for `CCn1c(=O)c2ccccc2n(Cc2nc(-c3cc(OC)cc(OC)c3)no2)c1=O`, 1000 s. The value for `O=c1c2sccc2n(Cc2nc(-c3ccc(C(F)(F)F)cc3)no2)c(=O)n1Cc1ccccc1` was 1200 s; that for `COc1ccccc1-c1nc(Cn2nnc(-c3nc(-c4ccc(OC(C)C)cc4)no3)c2C)c(C)o1` was 1230 s; that for `COc1cc(Cl)cc2c1OC=CC(C(=O)Nc1ccc(N3CCOCC3)cc1)=C2` was 979 s. For `CN1C(=O)COc2cc(-c3noc(C(=O)NCCc4ccc(S(N)(=O)=O)cc4)n3)ccc21` the value was 721 s.

For the origin of these results see the METLIN SMRT retention time set (Domingo-Almenara et al. 2019).
